From a melting point compilation (Tetko et al.; mined from patent text by program, amines drawn as free bases though some values may be those of a salt)

| melting point [°C] | Structure (SMILES) |
| --- | --- |
| 129 | Nc1cc(I)cnc1Cl |
| 155 to 157 | CCN(CC)c1nc2ccccc2n2c(C(F)(F)F)nnc12 |
| 56 to 58 | Cc1ccc(S(=O)(=O)N[C@@H]2CCCC[C@H]2OCC(=O)O)cc1 (relative stereo) |
| 221 to 223 | Cc1sc(N2CCN(C(=O)OC(C)(C)C)CC2)nc1/C=C/c1cn(-c2ccccc2)nc1O |
| 148 to 150 | O=C(NCc1ccccc1Cl)c1ccccc1CN1C(=O)C2(COc3cc4c(cc32)CCO4)c2ccccc21 (configuration not stated) |
| 263 to 264 | Cc1cc(C#N)cc(C(=O)c2c(C(C)C)c(=O)[nH]c(=O)n2Cc2cc(F)cc(NC(=O)C(F)(F)F)c2)c1 |
| 150 to 160 | CCOC(=O)c1cn(CC)c2nc(Cl)c(F)cc2c1=O |
| 71 to 72 | CCc1c(Cl)cnc(N)c1F |
| 126 to 130 | CC(C)(C)NC(=O)[C@@H]1C[C@H](Cl)CN1C(=O)[C@@H](O)[C@@H](N)Cc1ccccc1 |
| 192 | CS(=O)(=O)C(=C1CN(C(c2ccccc2)c2ccccc2)C1)c1cc(C(F)(F)F)cc(C(F)(F)F)c1 |
| 96 to 98 | N[C@@H]1C[C@H](C2CCCCC2)c2ccccc2NC1=O (relative stereo) |
| 197 to 198 | CCOCc1nc2c(N)nc3cc(-c4cccnc4)ccc3c2n1CC1CCN(C(=O)OC(C)(C)C)CC1 |
| 130 to 136 | CC(C)(C)c1cc(CCC(=O)OC2CC(C)(C)N(OC3CCCCC3)C(C)(C)C2)cc(-n2nc3ccc(Cl)cc3n2)c1O |
| 142 to 144 | O=C(Nc1ccc(-n2nc(C(F)(F)F)cc2C(F)(F)F)cc1)c1cc(Br)c(Br)s1 |
| 208 | Cc1ccn2c(-c3ccnc(-c4ccc(N5CCOCC5)cc4)c3)c(-c3cccc(C)n3)nc2c1 |
| 204 | CCOC(=O)Nc1nn(C)c2cc(OCc3ccccc3)ccc12 |
| 190 to 193 | O=C(Nc1ccc2nc(CN3CCCC3)ccc2c1)c1ccc(-c2ccc(F)cc2)cc1 |
| 147 to 149 | COc1ccc([N+](=O)[O-])c(CS(=O)(=O)c2ccccc2)n1 |
| > 300 | N=C(NCCCn1cc(C2=CC(=O)NC2=O)c2ccccc21)c1ccc(O)cc1 |

| melting point [°C] | Structure (SMILES) |
| --- | --- |
| 129 to 131 | O=C(NCC(=O)c1c(O)cc(O)cc1OCc1ccccc1)OCc1ccccc1 |
| 150 to 152 | Cc1oc(=O)oc1Cn1nnc(-c2ccnc(-c3nnn(Cc4oc(=O)oc4C)n3)c2)n1 |
| 193 to 195 | Cc1c(CC(=O)O)c2cc(O)ccc2n1C(=O)c1ccc(OC(F)(F)F)cc1 |
| 192 to 193 | Cn1cc(-c2cc3cccnc3[nH]2)c2cc(OCCCO)ccc21 |
| 259 to 260 | COC1=NC2OC(C(O)c3ccc(Cl)cc3Cl)=C(N)C2C=C1 (configuration not stated) |
| 222 | O=C(Nc1ccc2ccc(Cl)nc2n1)c1ccccc1F |
| 148 to 150 | CC1(C)CC(=O)CC(C)(C)N1SSSSN1C(C)(C)CC(=O)CC1(C)C |
| 201 to 202 | COc1cc(C#N)cc(-c2ccc3c(c2)C(C)(C)OC(=S)N3)c1 |
| 176 to 177 | CCCc1ccc2nc(SCC)c(S(N)(=O)=O)n2n1 |
| 290 to 292 | COc1c(F)cc2[nH]c(=O)c(=O)[nH]c2c1[N+](=O)[O-] |
| 139 to 141 | Oc1ccc2cc(OCCN3CCC(Cc4ccccc4)CC3)ccc2c1 |
| 145 to 147 | CC(C)(OCc1nn(Cc2ccccc2)c2ccc(Cl)cc12)C(=O)O |
| > 270 | O=S(=O)(O)c1ccc(NCc2ccccc2F)cc1 |
| 97 to 99 | CN(C[C@H]1CC[C@H](C#CCO)CC1)C(=O)OC(C)(C)C |
| 104 | CC(C)OC(=O)C(C)Oc1ncn(-c2ccccc2)n1 (configuration not stated) |
| 237 | NS(=O)(=O)c1cccc(-c2cc(-c3nc(-c4ccc(C(F)(F)F)cc4)cc(C(F)(F)F)n3)ccn2)c1 |
| 200 | O=C(Cc1cccc2ccccc12)Nc1cc([C@H]2C[C@@H](NC(=O)c3ccc4ccccc4n3)C2)[nH]n1 |
| 266 to 268 | CCOC(=O)c1cn(OC)c2nc3cc(F)c(F)cc3cc2c1=O |
| 134 to 136 | C=C(c1ccc(C)cc1)c1ccc(N2CCCC2)cc1 |

Second part, the compound before the results:

| Structure (SMILES) | melting point [°C] |
| --- | --- |
| C#CC(C)(O)C1CCC2C3CC=C4CC(OC)CCC4(C)C3CCC21C (configuration not stated) | 175 to 176 |
| Cc1cc(OC(=O)N(C)C)nc(C(Cl)(Cl)Cl)n1 | 83.5 to 84.5 |
| COc1c(CN2C(=O)c3ccccc3C2=O)n(C)c(=O)c2ccc(Cl)cc12 | 248 to 249 |
| Cc1c(NC(=O)c2ccc(OCC3CCCO3)cc2)ccc2cc(CNC3CCC(O)CC3)cnc12 (configuration not stated) | 155 |
| COc1ccc(-c2nn(CC(C)C)c3c(F)cccc23)c(OC)c1 | 92 to 93 |
| O=C1c2ccccc2C(=O)N1Cc1ccccc1[N+](=O)[O-] | 190 to 209 |
| Cc1ccc(-c2c(F)c(F)c3c(=O)c(C(=O)O)cn(C4CC4)c3c2F)c(C)n1 | 264 to 266 |
| C=C(CC(=O)c1ccc(C)cc1)C(=O)O | 137 to 138 |
| CC(C)(c1ccccc1)c1ccc(OCC(=O)O)c(C(C)(C)c2ccccc2)c1 | 114 |
| CC(C)(Oc1ccc2c(c1)CCc1c-2ccc2c1CCC2(C)C)C(=O)O | 167 to 170 |
| O=C1c2ccccc2CN1CCCN1CC=C(c2ccccc2)CC1 | 104 |
| CCOC(=O)c1nc2scc(COCc3ccc(C#N)cc3)c2c(=O)[nH]1 | 236 to 237 |
| COC1CCC2C3CCC4CC(C)(O)CCC4(C)C3CCC12C (configuration not stated) | 151 to 154 |
| CC(C)N1CCc2ccc(NC(=N)c3cccs3)cc2C1 | 110 to 111 |
| COC1CC(OCc2ccccc2)C(OS(=O)(=O)c2ccc(C)cc2)C(CO)O1 (configuration not stated) | 100 to 101 |
| CC(=O)N1CCc2cc(N)cnc21 | 193 to 195 |
| O=C1c2cc3nnn(CCc4cccc(F)c4)c(=O)c3cc2OC2OCCN12 (configuration not stated) | 191 to 193 |
| C[C@@H]1CN(CC(=O)Nc2ccccc2C(F)(F)F)C[C@H](C)N1c1ncnc2sccc12 | 154 to 155 |
| Cn1cc(Oc2ccc(Cl)cc2Cl)c(=O)c(-c2cccc(C(F)(F)F)c2)c1 | 129 to 130 |
| CCOc1ccc(C(=O)Nc2ccc3ccc(Cl)nc3n2)cc1 | 208 |

| Structure (SMILES) | melting point [°C] |
| --- | --- |
| Cc1ccccc1C(Oc1cc(OCc2ccc3c(c2)OCO3)ccc1C#N)c1nnn[nH]1 (racemic) | 106 to 109 |
| CC(C)(C)OC(=O)C(C)(C)Oc1ccc(N)cc1 | 87 to 88 |
| O=C(Nc1cccc(S(=O)(=O)N2CCCC2)c1)c1cnn2c(C(F)(F)F)cc(-c3ccc(Cl)c(Cl)c3)nc12 | 280 |
| CN1CC(=O)Nc2cscc2C1=O | 263 to 265 |
| C=CCN1CCC2(CC1)c1ccccc1C(=O)c1c(OC)cccc12 | 115 to 117 |
| Nc1cccc(C(F)(F)C(F)(F)C(F)(F)C(F)(F)C(F)(F)C(F)(F)C(F)(F)C(F)(F)F)c1 | 35.5 to 36 |
| O=C(O)Cc1c([N+](=O)[O-])cc(O)c(O)c1[N+](=O)[O-] | 178 to 184 |
| Cc1c(OC(F)F)ccnc1CSc1nc2ccccc2[nH]1 | 99 to 100 |
| CC(C)CCOCc1cccc(N2N=C(C(N)=O)NC2c2ccccc2F)c1 (configuration not stated) | 120 to 122 |
| CCOC(=O)c1cnc2c(C=O)cc(CN3CCOCC3)cc2c1O | 202 to 204 |
| COc1ccc(-c2cc3ccccc3[nH]2)cc1NCc1cccc([N+](=O)[O-])c1 | 160 to 162 |
| NS(=O)(=O)NC(=O)N1C[C@H](NC(=O)Cc2ccccc2)C1=O | 137 |
| CCNC(=O)Nc1ccc(CC(CO)NCC(O)COc2ccccc2)cc1 (configuration not stated) | 129 to 130 |
| COc1cc(NC(=O)c2c(Cl)cccc2Cl)c2ncccc2c1 | 180 to 182 |
| S=c1[nH]nc(-c2ccc3ccccc3c2)s1 | 254 to 256 |
| O=C(O)c1ccc(C=Cc2csc3ccccc23)s1 | 196 to 197 |
| COc1ccc(C2CCN(c3c(C)c(C)c4c(c3C)C(O)(c3ccc(C)cc3)C(C)(C)O4)CC2)cc1OC (configuration not stated) | 133 to 135 |
| CS(=O)c1cccc2c3c(n(Cc4ccc(Cl)cc4)c12)C(CC(=O)O)CCC3 (configuration not stated) | 119 to 120 |
| CCOC(=O)C(=O)Nc1ccc(CC)cc1[N+](=O)[O-] | 110 to 112 |
| CCOc1ccc(-c2c(Cl)c(CCl)nc3sc4c(c23)CCN(C(=O)OCc2ccccc2)C4)cc1 | 159 to 161 |

| Structure (SMILES) | melting point [°C] |
| --- | --- |
| O=[N+]([O-])c1cn2c(n1)O[C@@H](CN1CCN(Cc3ccc(C(F)(F)F)cc3)CC1)C2 | 149 to 150 |
| CN1C(C)(C)CC2(CC1(C)C)NC(=O)N(CC(O)CN1C(=O)NC3(CC(C)(C)N(C)C(C)(C)C3)C1=O)C2=O | 255 to 256 |
| CN(CCO)Cc1cc(C(=O)c2ccccc2F)cc(C(C)(C)C)c1O | 87 to 89 |
| O=c1[nH]c2cc(F)ccc2n1-c1cc(Cl)ccc1O | 256 to 260 |
| CC(=O)CCCNC(=O)c1c2ccc(Cl)cc2c(-c2ccccc2)n1C | 128 to 131 |
| CNc1nc(-c2cccc(C#Cc3ccccc3)c2)c2cc(OC)c(OC)cc2n1 | 102 to 104 |
| CCCCCCCCCC#Cc1ccnc(C(=O)O)c1 | 93 to 94 |
| O=Cc1ccc(OCc2ccccc2F)c(Cc2ccccc2F)c1 | 71 |
| CNC(=O)c1cccc(NC(=O)Cc2ccc3c(c2)CC(C)(C)O3)c1 | 92 to 93 |
| O=C(CF)NC[C@H]1CN(c2ccc(N3CCN(c4ccc([N+](=O)[O-])s4)CC3)c(F)c2)C(=O)O1 | 145 to 150 |
| CCNC(=O)c1ccc(F)c2c1CC(N(CCCc1c[nH]c3ccc(F)cc13)C1CCC1)CO2 (configuration not stated) | 130 |
| CCc1nc2c(N)nc3ccccc3c2n1CC1(O)CCCCC1 | 217 to 218 |
| CCOC(=O)c1c(C)nn(-c2ccccn2)c1C | 49 to 50 |
| ClCCCOc1ccc(/C=C/c2nc3ccccc3o2)cc1 | 82 to 83 |
| CCC(N=O)C(C)(C)Cl (configuration not stated) | 85 to 86 |
| CCCCCCCCCC=C1OC(=O)N(CCCCSc2cccc3nccn23)C1=O | 46 to 48 |
| O=C1CCC(c2ccc(-c3ccccc3Cl)o2)O1 (configuration not stated) | 101 to 103 |
| O=C(O)CCCCCCCCCCCCCCC(=O)ON1C(=O)CCC1=O | 118 to 121 |
| CC(C)n1cc(-c2nc(C(=O)O)c(N)nc2-c2ccc(F)cc2)ccc1=O | 222 |
